{
  "source": "patent US8815535B2",
  "about": "“Disk diffusion assay for oritavancin” (The Medicines Company, priority 2011, dated 2014)",
  "tested_on": "MSSA ATCC 25923",
  "assay": "Disk diffusion assay (zone of inhibition)",
  "format": "cell-based, Staphylococcus aureus",
  "details": "for Average zone diameter: disks from 18 mg/ml oritavancin in 5% P80, 3-hour prediffusion; for zone of inhibition at 9000 µg/mL: read-out: Inhibition zone diameter, ATCC 25923; for zone of inhibition at 45 µg/disc: 45 μg oritavancin in 0.002% P80; for zone of inhibition at 90 µg/disc: 90 μg oritavancin in 0.002% P80; for zone of inhibition at 180 µg/disc: 180 μg oritavancin in 0.002% P80; for zone of inhibition at 12.5 µg/disc: 12.5 μg in 4% P80/Span 80 (1:1)",
  "excerpt": "The study was designed to identify conditions that improve oritavancin diffusion in agar and consequently yield a zone diameter ≧15 mm for the CLSI quality control strain MSSA ATCC 25923. Excipients that increased the disk diffusion of oritavancin in agar relative to disks containing only oritavancin were identified and selected for further study. […] A prediffusion step at room temperature was introduced to maximize oritavancin diffusion prior to initiation of bacterial growth. In this step, the antimicrobial disks were placed on agar plates seeded with a bacterial isolate and incubated at room temperature for 3 hours. Plates were then incubated overnight at 37° C. Zone diameters around the disks in which bacterial growth was inhibited were measured with a ruler and reported in millimeters.\nEthanol-sterilized Whatman paper disks (6 mm diameter) were allowed to dry then impregnated with 20 microliters of oritavancin solution containing total amounts ranging from 90 to 360 micrograms. Disks were allowed to dry at room temperature for various times prior to use.\nBacterial suspensions were prepared and adjusted to an optical density of 0.1 at 600 nm. […] The plate was swabbed a second time, perpendicular to the orientation of the first swab. To assess the impact of prediffusion on diameter of inhibition zones, two disks were immediately placed on one half of the plate and the plate was incubated for 3 hours at room temperature. After 3 hours, two additional disks were placed on the other half of the plate then the plate was incubated overnight at 37° C. Zone diameters were measured with a ruler and reported in millimeters. […]\nOritavancin powder was dissolved in freshly-prepared solutions of the indicated excipients at concentrations of 0.625, 1.25, 2.5, 5, and 10 mg/ml (adjusted for potency based on lot 875561L00 purity of 83.1%) by vortexing for a minimum of 5 minutes. Oritavancin solutions in the various excipients, while not visually clear, were free from any apparent particulates as assessed visually. Sterile Oxoid blank disks were impregnated with 20 μl of these oritavancin solutions, resulting in oritavancin disk loads ranging from 12.5 to 200 μg. Unless indicated otherwise, disks were allowed to dry overnight at room temperature prior to use.\n[…] Swabbing was continued at a right angle and then at an oblique angle to the first and second swabs. Disks were placed upon the seeded plates with sterile forceps. Plates were then incubated overnight at 37° C. and inhibition zone diameters were measured with a ruler and reported in millimeters.",
  "key": {"[1]": {"details": "Staphylococcus aureus, read-out: Average zone diameter, MSSA ATCC 25923, CAMHA containing 1% P80, no prediffusion"}, "[2]": {"details": "Staphylococcus aureus, read-out: Average zone diameter, MSSA ATCC 25923, CAMHA containing 1% P80, prediffusion"}},
  "note": "“And” between values parts separate entries of the source, which are not always exact repeats. Equal entries are not always repeated. Where two headings read alike, the source gives them in different places.",
  "data": [
    {"smiles": "CN[C@H](CC(C)C)C(=O)N[C@H]1C(=O)N[C@@H](CC(N)=O)C(=O)N[C@H]2C(=O)N[C@H]3C(=O)N[C@H](C(=O)N[C@H](C(=O)O)c4cc(O)cc(O)c4-c4cc3ccc4O)[C@H](O[C@H]3C[C@](C)(N)[C@@H](O)[C@H](C)O3)c3ccc(c(Cl)c3)Oc3cc2cc(c3O[C@@H]2O[C@H](CO)[C@@H](O)[C@H](O)[C@H]2O[C@H]2C[C@](C)(NCc3ccc(-c4ccc(Cl)cc4)cc3)[C@@H](O)[C@H](C)O2)Oc2ccc(cc2Cl)[C@H]1O", "note": "[oritavancin, N-(4-(4-chlorophenyl)benzyl)A82846B]", "values": [
      {"measurement": "Inhibition zone diameter", "setting": "ATCC 25923, 25 μg (20 μl of 1.25 mg/ml) in 4% P80/Span 80 (1:1), calcium alginate swab, dried overnight", "result": "22 mm and 20 mm"},
      {"measurement": "Inhibition zone diameter", "setting": "ATCC 25923, 20 μl of 9 mg/ml oritavancin in 2.5% P80, prediffusion at 4° C. 3 h, duplicate determinations", "result": 19, "unit": "mm"},
      {"measurement": "Inhibition zone diameter", "setting": "ATCC 25923, 20 μl of 9 mg/ml oritavancin in 2.5% P80, prediffusion at 4° C. 6 h, duplicate determinations", "result": 22, "unit": "mm"},
      {"measurement": "Inhibition zone diameter", "setting": "ATCC 25923, 20 μl of 9 mg/ml oritavancin in 2.5% P80, prediffusion at room temperature 3 h, duplicate determinations", "result": 17, "unit": "mm"},
      {"measurement": "Inhibition zone diameter", "setting": "ATCC 25923, 20 μl of 9 mg/ml oritavancin in 2.5% P80, prediffusion at room temperature 6 h, duplicate determinations", "result": 18.5, "unit": "mm"},
      {"measurement": "Inhibition zone diameter", "setting": "ATCC 25923, Oxoid disks, 20 μl of 18 mg/ml oritavancin in 5% P80, stored 30 days at room temperature, prediffusion 6 hours at 4° C.", "result": 17.5, "unit": "mm"},
      {"measurement": "Average zone diameter", "setting": "ATCC 25923, stored 1 day at room temperature", "result": 15.0, "unit": "mm"},
      {"measurement": "Average zone diameter", "setting": "ATCC 25923, stored 4 days at room temperature", "result": 15.8, "unit": "mm"},
      {"measurement": "Average zone diameter", "setting": "ATCC 25923, stored 6 days at room temperature", "result": 16.3, "unit": "mm"},
      {"measurement": "Average zone diameter", "setting": "ATCC 25923, stored 8 days at room temperature", "result": 17.0, "unit": "mm"},
      {"measurement": "Average zone diameter", "setting": "ATCC 25923, used same day", "result": 14.0, "unit": "mm"},
      {"measurement": "Increase of the area of the zone of clearance by prediffusion", "setting": "MSSA ATCC 25923, 360 μg oritavancin in 0.002% P80", "result": "approximately 24%"},
      {"measurement": "Zone diameters", "setting": "MSSA ATCC 25923, CAMHA containing 1% P80, disks with various concentrations of oritavancin in 0.002% P80, even with 3 h prediffusion", "result": "< 15", "unit": "mm"},
      {"measurement": "Inhibition zone diameter", "setting": "MSSA ATCC 25923, Oxoid disk, 180 μg, 5% P80, stored 7 days, prediffusion 3 h at 4° C., duplicates", "result": 12.5, "unit": "mm"},
      {"measurement": "Inhibition zone diameter", "setting": "MSSA ATCC 25923, Oxoid disk, 270 μg, 5% P80, stored 7 days, prediffusion 3 h at 4° C., duplicates", "result": 13.5, "unit": "mm"},
      {"measurement": "Inhibition zone diameter", "setting": "MSSA ATCC 25923, Whatman #5 disk, 180 μg, 2.5% P80, stored 7 days, prediffusion 3 h at 4° C., duplicates", "result": 16, "unit": "mm"},
      {"measurement": "Inhibition zone diameter", "setting": "MSSA ATCC 25923, Whatman #5 disk, 360 μg, 5% P80, stored 7 days, prediffusion 3 h at 4° C., duplicates", "result": 16.5, "unit": "mm"},
      {"measurement": "Zone diameter", "setting": "MSSA quality control strain ATCC 25923, different combinations of the alterations to the traditional assay", "result": "up to 24 mm"},
      {"measurement": "zone of inhibition at 360 µg/disc", "setting": "Staphylococcus aureus, 3 h, read-out: Average zone diameter, ATCC 25923, 360 μg oritavancin, excipient 10% HPCD, disks made same day, 3 h prediffusion, average of 2 disks", "result": 17.5, "unit": "mm"},
      {"measurement": "zone of inhibition at 9000 µg/mL", "setting": "Staphylococcus aureus, 3 h, 20 μl of 9 mg/ml oritavancin in 2.5% P80, prediffusion at 4° C. 3 h, duplicate determinations", "result": 18, "unit": "mm"},
      {"measurement": "zone of inhibition at 9000 µg/mL", "setting": "Staphylococcus aureus, 3 h, 20 μl of 9 mg/ml oritavancin in 2.5% P80, prediffusion at room temperature 3 h, duplicate determinations", "result": 16.5, "unit": "mm"},
      {"measurement": "zone of inhibition at 50 µg/disc", "setting": "Staphylococcus aureus, 3 h, read-out: Inhibition zone diameter, MSSA ATCC 25923, 50 μg oritavancin, 0.5% P80/Span 80 (35:65) in water, dried approx. 3 hours, estimate of diameter", "result": 10, "unit": "mm"},
      {"measurement": "zone of inhibition at 50 µg/disc", "setting": "Staphylococcus aureus, 3 h, read-out: Inhibition zone diameter, MSSA ATCC 25923, 50 μg oritavancin, 1% P80/Span 80 (35:65) in water, dried approx. 3 hours, estimate of diameter", "result": 15, "unit": "mm"},
      {"measurement": "zone of inhibition at 50 µg/disc", "setting": "Staphylococcus aureus, 3 h, read-out: Inhibition zone diameter, MSSA ATCC 25923, 50 μg oritavancin, 2% P80/Span 80 (35:65) in water, dried approx. 3 hours, estimate of diameter", "result": 20, "unit": "mm"},
      {"measurement": "zone of inhibition at 50 µg/disc", "setting": "Staphylococcus aureus, 3 h, read-out: Inhibition zone diameter, MSSA ATCC 25923, 50 μg oritavancin, 4% P80/Span 80 (35:65) in water, dried approx. 3 hours, estimate of diameter", "result": 28, "unit": "mm"},
      {"measurement": "zone of inhibition at 9000 µg/mL", "setting": "Staphylococcus aureus, 6 h, 20 μl of 9 mg/ml oritavancin in 2.5% P80, prediffusion at 4° C. 6 h, duplicate determinations", "result": 21, "unit": "mm"},
      {"measurement": "zone of inhibition at 9000 µg/mL", "setting": "Staphylococcus aureus, 6 h, 20 μl of 9 mg/ml oritavancin in 2.5% P80, prediffusion at room temperature 6 h, duplicate determinations", "result": 18, "unit": "mm"},
      {"measurement": "zone of inhibition at 360 µg/disc", "setting": "Staphylococcus aureus, 192 h, read-out: Zone diameter (mm ± SD), ATCC 25923, 360 μg in 5% P80, Experiment 2, disks stored 8 days, no prediffusion", "result": 14.5, "unit": "mm"},
      {"measurement": "zone of inhibition at 360 µg/disc", "setting": "Staphylococcus aureus, 216 h, read-out: Average zone diameter, MSSA ATCC 25923, 360 μg oritavancin in 0.002% P80, without prediffusion, two disks (FIG. 1A), disks stored 9 days", "result": 10.5, "unit": "mm"},
      {"measurement": "zone of inhibition at 360 µg/disc", "setting": "Staphylococcus aureus, 216 h, read-out: Average zone diameter, MSSA ATCC 25923, 360 μg oritavancin in 5% P80, with prediffusion (FIG. 1D), disks stored 9 days", "result": 17, "unit": "mm"},
      {"measurement": "zone of inhibition at 360 µg/disc", "setting": "Staphylococcus aureus, 216 h, read-out: Average zone diameter, MSSA ATCC 25923, 360 μg oritavancin in 5% P80, without prediffusion (FIG. 1B), disks stored 9 days", "result": 14.8, "unit": "mm"},
      {"measurement": "zone of inhibition at 360 µg/disc", "setting": "Staphylococcus aureus, 336 h, read-out: Zone diameter (mm ± SD), ATCC 25923, 360 μg in 5% P80, Experiment 1, disks stored 14 days, no prediffusion", "result": "15.3 ± 0.4", "unit": "mm"},
      {"measurement": "zone of inhibition at 360 µg/disc", "setting": "Staphylococcus aureus, read-out: Average zone diameter, ATCC 25923, 360 μg oritavancin, excipient 5% P80, disks stored 5 days at room temperature, 3 h prediffusion, average of 2 disks", "result": 19, "unit": "mm"},
      {"measurement": "zone of inhibition at 45 µg/disc", "setting": "[1]", "result": 12, "unit": "mm"},
      {"measurement": "zone of inhibition at 45 µg/disc", "setting": "[2]", "result": 12.3, "unit": "mm"},
      {"measurement": "zone of inhibition at 90 µg/disc", "setting": "[1]", "result": 11.8, "unit": "mm"},
      {"measurement": "zone of inhibition at 90 µg/disc", "setting": "[2]", "result": 12.8, "unit": "mm"},
      {"measurement": "zone of inhibition at 180 µg/disc", "setting": "[1]", "result": 12.3, "unit": "mm"},
      {"measurement": "zone of inhibition at 180 µg/disc", "setting": "[2]", "result": 13, "unit": "mm"},
      {"measurement": "zone of inhibition at 360 µg/disc", "setting": "Staphylococcus aureus, read-out: Average zone diameter, MSSA ATCC 25923, 360 μg oritavancin in 0.002% P80, CAMHA containing 1% P80, no prediffusion", "result": 12.8, "unit": "mm"},
      {"measurement": "zone of inhibition at 360 µg/disc", "setting": "Staphylococcus aureus, read-out: Average zone diameter, MSSA ATCC 25923, 360 μg oritavancin in 0.002% P80, CAMHA containing 1% P80, prediffusion", "result": 12.5, "unit": "mm"},
      {"measurement": "zone of inhibition at 12.5 µg/disc", "setting": "Staphylococcus aureus, read-out: Inhibition zone diameter, 25923, calcium alginate swab, dried overnight", "result": 20, "unit": "mm"},
      {"measurement": "zone of inhibition at 12.5 µg/disc", "setting": "Staphylococcus aureus, read-out: Inhibition zone diameter, 25923, cotton swab, dried overnight, estimate of diameter", "result": 27, "unit": "mm"},
      {"measurement": "zone of inhibition at 25 µg/disc", "setting": "Staphylococcus aureus, read-out: Inhibition zone diameter, 25923, 25 μg in 4% P80/Span 80 (1:1), cotton swab (Table 14), dried overnight, estimate of diameter", "result": 30, "unit": "mm"},
      {"measurement": "zone of inhibition at 50 µg/disc", "setting": "Staphylococcus aureus, read-out: Inhibition zone diameter, 25923, 50 μg in 4% P80/Span 80 (1:1), calcium alginate swab, dried overnight", "result": 19, "unit": "mm"}
    ]}
  ]
}
